How the values were obtained:
Assay type in all cases: in vivo
[1] = test system: Indian mallow; assay: Test Example 3: weedkilling efficacy through soil treatment; K: Indian mallow; details: soil treatment, treatment dosage 320 g/ha
Summary of the method: (§1)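 Crop and weed responses were judged three weeks after a uniform surface spray of the water-diluted emulsion at the given g/ha rate. Seeds sat beneath about 1.5 cm of sterilized diluvial soil, and boxes stood in a greenhouse at 25 to 30° C.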

[2] = test system: bulrush; assay: Test Example 1: weedkilling efficacy, preemergent weed treatment in the submerged state; B: bulrush; details: treatment dosage 320 g/ha
Summary of the method: (§2)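 Pots of alluvial soil were flooded to a 4 cm depth. Mixed weed seeds were sown and 2.5 leaf-stage rice seedlings transplanted. On sowing day, water-diluted emulsion was applied to the water surface (dose in g/ha). After 3 weeks at 25–30 °C, effects were rated.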

[3] = test system: Italian ryegrass; assay: Test Example 3: weedkilling efficacy through soil treatment; I: Italian ryegrass; details: soil treatment, treatment dosage 320 g/ha
Summary of the method: as §1

[4] = test system: oval-leafed pondweed; assay: Test Example 1: weedkilling efficacy, preemergent weed treatment in the submerged state; C: oval-leafed pondweed; details: treatment dosage 320 g/ha
Summary of the method: as §2

[5] = test system: rapeseed; assay: Test Example 3: soil treatment, effect on crop; g: rapeseed; details: soil treatment, treatment dosage 320 g/ha
From the text: (§3) Weedkilling Efficacy Test Through Soil Treatment
(§4) Sterilized diluvial soil was introduced into 21 cm long, 13 cm wide, 7 cm deep plastic boxes, and seeds of crabgrass, green foxtail, barnyard grass, wild oat, black-grass, Italian ryegrass, common wind-grass, Indian mallow, redroot pigweed, fig-leafed goosefoot, chickweed, catchweed, birds-eye speedwell, corn, soybean, rice, wheat, beet and rapeseed were each spot-sown, and covered with about 1.5 cm of soil. Next, emulsions of compounds of the present invention prepared according to compounding example 2 were diluted with water to give the specified dosages, and applied uniformly onto the soil surface with a small sprayer. The plants were grown by placing the plastic boxes in a greenhouse at 25 to 30° C., and 3 weeks after the pesticide treatment the effect on each type of plant was investigated on the basis of the assessment criteria of test example 1.
(§5) A: barnyard grass, B: bulrush, C: oval-leafed pondweed, D: crabgrass, E: green foxtail, F: barnyard grass, G: wild oat, H: black-grass, I: Italian ryegrass, J: common wind-grass, K: Indian mallow, L: redroot pigweed, M: fig-leafed goosefoot, N: chickweed, O: catchweed, p: birds-eye speedwell, a: transplanted rice, b: directly sown rice, c: corn, d: soybean, e: wheat, f: beet, g: rapeseed
(§6) Further, pesticide dosage (g/ha) indicates the concentration regulated such that treatment was with only the stated number of grams (g), when calculated per hectare (ha).

[6] = test system: beet; assay: Test Example 3: soil treatment, effect on crop; f: beet; details: soil treatment, treatment dosage 320 g/ha
Summary of the method: as §1

[7] = test system: birds-eye speedwell; assay: Test Example 3: weedkilling efficacy through soil treatment; p: birds-eye speedwell; details: soil treatment, treatment dosage 320 g/ha
Summary of the method: as §1

[8] = test system: chickweed; assay: Test Example 3: weedkilling efficacy through soil treatment; N: chickweed; details: soil treatment, treatment dosage 320 g/ha
Summary of the method: as §1

[9] = test system: soybean; assay: Test Example 3: soil treatment, effect on crop; d: soybean; details: soil treatment, treatment dosage 320 g/ha
Summary of the method: as §1

[10] = test system: barnyard grass; assay: Test Example 1: weedkilling efficacy, preemergent weed treatment in the submerged state; A: barnyard grass; details: treatment dosage 320 g/ha
Summary of the method: as §2

[11] = test system: barnyard grass; assay: Test Example 3: weedkilling efficacy through soil treatment; F: barnyard grass; details: soil treatment, treatment dosage 320 g/ha
From the text: as §3, §4, §5, §6

[12] = test system: transplanted rice; assay: Test Example 1: preemergent weed treatment in the submerged state, effect on crop; a: transplanted rice; details: treatment dosage 320 g/ha
Summary of the method: as §2

[13] = test system: oval-leafed pondweed; assay: Test Example 2: weedkilling efficacy, growth period weed treatment in the submerged state; C: oval-leafed pondweed; details: treatment dosage 320 g/ha
Summary of the method: (§7)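 Weeds treated at the 1-2 leaf stage by application of diluted emulsion onto floodwater (4 cm depth, alluvial soil) at specified g/ha. Grown in greenhouse at 25 to 30° C; herbicidal effect rated three weeks after treatment.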

[14] = test system: fig-leafed goosefoot; assay: Test Example 3: weedkilling efficacy through soil treatment; M: fig-leafed goosefoot; details: soil treatment, treatment dosage 320 g/ha
Summary of the method: as §1

[15] = test system: black-grass; assay: Test Example 3: weedkilling efficacy through soil treatment; H: black-grass; details: soil treatment, treatment dosage 320 g/ha
Summary of the method: as §1

[16] = test system: common wind-grass; assay: Test Example 3: weedkilling efficacy through soil treatment; J: common wind-grass; details: soil treatment, treatment dosage 320 g/ha
From the text: as §3, §4, §5, §6

[17] = test system: corn; assay: Test Example 3: soil treatment, effect on crop; c: corn; details: soil treatment, treatment dosage 320 g/ha
Summary of the method: as §1

[18] = test system: barnyard grass; assay: Test Example 2: weedkilling efficacy, growth period weed treatment in the submerged state; A: barnyard grass; details: treatment dosage 320 g/ha
Summary of the method: as §7

[19] = test system: crabgrass; assay: Test Example 3: weedkilling efficacy through soil treatment; D: crabgrass; details: soil treatment, treatment dosage 320 g/ha
Summary of the method: as §1

[20] = test system: redroot pigweed; assay: Test Example 3: weedkilling efficacy through soil treatment; L: redroot pigweed; details: soil treatment, treatment dosage 320 g/ha
Summary of the method: as §1

[21] = test system: wheat; assay: Test Example 3: soil treatment, effect on crop; e: wheat; details: soil treatment, treatment dosage 320 g/ha
Summary of the method: as §1

[22] = test system: bulrush; assay: Test Example 2: weedkilling efficacy, growth period weed treatment in the submerged state; B: bulrush; details: treatment dosage 320 g/ha
Summary of the method: as §7

[23] = test system: wild oat; assay: Test Example 3: weedkilling efficacy through soil treatment; G: wild oat; details: soil treatment, treatment dosage 320 g/ha
Summary of the method: as §1

[24] = test system: directly sown rice; assay: Test Example 3: soil treatment, effect on crop; b: directly sown rice; details: soil treatment, treatment dosage 320 g/ha
Summary of the method: as §1

[25] = test system: green foxtail; assay: Test Example 3: weedkilling efficacy through soil treatment; E: green foxtail; details: soil treatment, treatment dosage 320 g/ha
Summary of the method: as §1

SMILES	K: Indian mallow, weedkilling efficacy grade [1]	B: bulrush, weed kill grade [2]	I: Italian ryegrass, weedkilling efficacy grade [3]	C: oval-leafed pondweed, weed kill grade [4]	g: rapeseed, effect on crop grade [5]	f: beet, effect on crop grade [6]	P: birds-eye speedwell, weedkilling efficacy grade [7]	N: chickweed, weedkilling efficacy grade [8]	d: soybean, effect on crop grade [9]	F: barnyard grass, weedkilling efficacy grade [11]	M: fig-leafed goosefoot, weedkilling efficacy grade [14]	H: black-grass, weedkilling efficacy grade [15]	J: common wind-grass, weedkilling efficacy grade [16]	c: corn, effect on crop grade [17]	D: crabgrass, weedkilling efficacy grade [19]	L: redroot pigweed, weedkilling efficacy grade [20]	e: wheat, effect on crop grade [21]	G: wild oat, weedkilling efficacy grade [23]	b: directly sown rice, effect on crop grade [24]	E: green foxtail, weedkilling efficacy grade [25]	further results
CC(C)(C(=O)Nc1cc(I)ccn1)N1COCN(c2ccccc2)C1=O [A-2-10]	0 (weed kill ratio 5% or less (practically no effect))	5 (weed kill ratio 90% or more, (practically complete withering))	5 (weed kill ratio 90% or more, (practically complete withering))	5 (weed kill ratio 90% or more, (practically complete withering))	3 (weed kill ratio 40% or more, less than 70%)	3 (weed kill ratio 40% or more, less than 70%)	4 (weed kill ratio 70% or more, less than 90%)	3 (weed kill ratio 40% or more, less than 70%)	0 (weed kill ratio 5% or less (practically no effect))	5 (weed kill ratio 90% or more, (practically complete withering))	4 (weed kill ratio 70% or more, less than 90%)	5 (weed kill ratio 90% or more, (practically complete withering))	5 (weed kill ratio 90% or more, (practically complete withering))	0 (weed kill ratio 5% or less (practically no effect))	5 (weed kill ratio 90% or more, (practically complete withering))	1 (weed kill ratio 5% or more, less than 20%)	0 (weed kill ratio 5% or less (practically no effect))	2 (weed kill ratio 20% or more, less than 40%)	4 (weed kill ratio 70% or more, less than 90%)	5 (weed kill ratio 90% or more, (practically complete withering))	A: barnyard grass, weed kill grade [10]: 5 (weed kill ratio 90% or more, (practically complete withering)); a: transplanted rice, effect on crop grade [12]: 1 (weed kill ratio 5% or more, less than 20%); C (oval-leafed pondweed) weedkilling efficacy grade [13]: 5 (weed kill ratio 90% or more, (practically complete withering)); A (barnyard grass) weedkilling efficacy grade [18]: 5 (weed kill ratio 90% or more, (practically complete withering)); B (bulrush) weedkilling efficacy grade [22]: 5 (weed kill ratio 90% or more, (practically complete withering))
CC(C)(C(=O)Nc1cc(Cl)cc(Cl)n1)N1COCN(c2ccccc2)C1=S [A-2-18, N-(4,6-dichloropyridin-2-yl)-2-methyl-2-(5-phenyl-4-thioxo-1,3,5-oxadiazinan-3-yl) propionamide]	2 (weed kill ratio 20% or more, less than 40%)	–	5 (weed kill ratio 90% or more, (practically complete withering))	–	3 (weed kill ratio 40% or more, less than 70%)	3 (weed kill ratio 40% or more, less than 70%)	5 (weed kill ratio 90% or more, (practically complete withering))	3 (weed kill ratio 40% or more, less than 70%)	0 (weed kill ratio 5% or less (practically no effect))	5 (weed kill ratio 90% or more, (practically complete withering))	3 (weed kill ratio 40% or more, less than 70%)	5 (weed kill ratio 90% or more, (practically complete withering))	5 (weed kill ratio 90% or more, (practically complete withering))	1 (weed kill ratio 5% or more, less than 20%)	5 (weed kill ratio 90% or more, (practically complete withering))	3 (weed kill ratio 40% or more, less than 70%)	0 (weed kill ratio 5% or less (practically no effect))	3 (weed kill ratio 40% or more, less than 70%)	5 (weed kill ratio 90% or more, (practically complete withering))	5 (weed kill ratio 90% or more, (practically complete withering))	–
CC(C)(C(=O)Nc1cc(C(F)(F)F)cc(F)n1)N1COCN(c2ccccc2)C1=O [A-2-22]	4 (weed kill ratio 70% or more, less than 90%)	5 (weed kill ratio 90% or more, (practically complete withering))	5 (weed kill ratio 90% or more, (practically complete withering))	5 (weed kill ratio 90% or more, (practically complete withering))	4 (weed kill ratio 70% or more, less than 90%)	4 (weed kill ratio 70% or more, less than 90%)	5 (weed kill ratio 90% or more, (practically complete withering))	4 (weed kill ratio 70% or more, less than 90%)	4 (weed kill ratio 70% or more, less than 90%)	5 (weed kill ratio 90% or more, (practically complete withering))	4 (weed kill ratio 70% or more, less than 90%)	5 (weed kill ratio 90% or more, (practically complete withering))	5 (weed kill ratio 90% or more, (practically complete withering))	0 (weed kill ratio 5% or less (practically no effect))	5 (weed kill ratio 90% or more, (practically complete withering))	4 (weed kill ratio 70% or more, less than 90%)	0 (weed kill ratio 5% or less (practically no effect))	5 (weed kill ratio 90% or more, (practically complete withering))	5 (weed kill ratio 90% or more, (practically complete withering))	5 (weed kill ratio 90% or more, (practically complete withering))	A: barnyard grass, weed kill grade [10]: 5 (weed kill ratio 90% or more, (practically complete withering)); a: transplanted rice, effect on crop grade [12]: 5 (weed kill ratio 90% or more, (practically complete withering)); C (oval-leafed pondweed) weedkilling efficacy grade [13]: 5 (weed kill ratio 90% or more, (practically complete withering)); A (barnyard grass) weedkilling efficacy grade [18]: 5 (weed kill ratio 90% or more, (practically complete withering)); B (bulrush) weedkilling efficacy grade [22]: 5 (weed kill ratio 90% or more, (practically complete withering))
